Values of other authors, collected in PMC2505184 (Bioconjugate chemistry, 2008).

## O=C([O-])CN1CCCN(CC(=O)[O-])CCN(CC(=O)[O-])CCCN(CC(=O)[O-])CC1.[64Cu+2] [^64Cu-TETA]
  in vitro serum stability: high in vitro serum stability
